Assay results published in patent US20200093801A1, “NEW METHODS FOR THE TREATMENT OF MULTIPLE SCLEROSIS” (Novartis AG, priority 2017, published 2020).

Test system: Cuprizone-Induced Demyelination in Mice
Test: Cuprizone-induced demyelination in mice at 20 mg/kg and 60 mg/kg, MRI
Assay type: in vivo, Mice (C57BL/6J)
Text: Studies described below were approved by the Swiss Cantonal Veterinary Authority of Basel City, Switzerland, under the license number 2711. Mice (C57BL/6J) were commercially purchased from Charles River Laboratories, Germany or obtained from Novartis Pharma AG breeding colonies (8-9 weeks old, females). All the animals were allowed to adapt for 7 days prior the start of the experiment and housed in IVC racks (max. 4 mice/XJ Type cage). The animals were given access to food and water ad libitum. Animals were treated with cuprizone for 5 weeks. Cuprizone (Bis(cyclohexanone)oxaldihydrazone, Sigma-Aldrich) was mixed into rodent food pellets (0.2% w/w) by Provimi Kliba AG, Switzerland. Therapeutic treatment of animals after cuprizone was performed for 2 weeks on normal food with 20 and 60 mg/kg of BLZ945, qd, p.o. 10 ml/kg. BLZ945 was prepared in vehicle consisting of 0.5% methylcellulose in water and 0.1% Tween-80. Before killing 3 h after last BLZ945 dosing animals were perfused transcardially by phosphate-buffered saline (PBS), brains isolated and fixed in 4% paraformaldehyde (PFA) for 48 h at 4° C.
Measurements were performed with a Biospec 70/30 spectrometer (Bruker Medical Systems, Ettlingen, Germany) operating at 7 T. The operational software of the scanner was Paravision 5.1 (Bruker). Images were acquired from anesthetized, spontaneously breathing animals using a mouse brain circularly polarized coil (Bruker, Model 1P T20063V3; internal diameter 23 mm) for radiofrequency excitation and detection; neither cardiac nor respiratory triggering was applied. Following a short period of introduction in a box, animals were maintained in anesthesia with 1.5% isoflurane (Abbott, Cham, Switzerland) in oxygen, administered via a nose cone. During MRI signal acquisitions, animals were placed in prone position in a cradle made of Plexiglas, the body temperature was kept at 37±1° C. using a heating pad, and the respiration was monitored.
A T2-weighted, two-dimensional multislice RARE (Rapid Acquisition with Relaxation Enhancement) sequence (Hennig et al., 1986) was used for determining the anatomical orientation and for evaluating signal intensities. This was followed by a two-dimensional multislice gradient-recalled FLASH (Fast Low-Angle Shot) acquisition (Haase et al., 1986) for assessment of MTR. As both sequences had the same anatomical parameters, the choice of the regions-of-interest for evaluations was performed on the RARE images and then transferred to the FLASH images. The parameters of the acquisitions were the following: (a) RARE sequence: effective echo time 80 ms, repetition time 3280 ms, RARE factor 16, 12 averages, field of view 20×18 mm^2, matrix size 213×192, pixel size 0.094×0.094 mm^2, slice thickness 0.5 mm, 15 adjacent slices. Hermite pulses of duration/bandwidth 1 ms/5400 Hz and 0.64 ms/5344 Hz were used for radiofrequency excitation and refocusing, respectively. Fat suppression was achieved by a gauss512 pulse of 2.61 ms/1051 Hz duration/bandwidth followed by a 2-ms-long gradient spoiler. The total acquisition time was of 7 min 52.3 s; (b) FLASH sequence: echo time 2.8 ms, repetition time 252.8 ms, 4 averages, field of view 20×18 mm^2, matrix size 213×192, pixel size 0.094×0.094 mm^2, slice thickness 0.5 mm, 15 adjacent slices. A hermite pulse of 0.9 ms/6000 Hz duration/bandwidth and flipangle 30° was used for radiofrequency excitation. MTR contrast was introduced by a gauss pulse of 15 ms/182.7 Hz duration/bandwidth applied with a radiofrequency peak amplitude of 7.5 μT and an irradiation offset of 2500 Hz. The acquisition was then repeated with the same parameters but without the introduction of the MTR contrast. MTR was then computed using the formula MTR=(S0−SMTR)/S0, where S0 and SMTR represent respectively the signal intensities in the FLASH acquisitions without and with the introduction of the MTR contrast. The total acquisition time for both data sets was of 6 min 31.6 seconds.

[1] = 60 mg/kg p.o. qd, therapeutic mode after 5 weeks cuprizone
[2] = 20 and 60 mg/kg p.o. qd, 2-week therapeutic treatment after 5 weeks 0.2% cuprizone, FIG. 9 legend

CNC(=O)c1cc(Oc2ccc3nc(N[C@@H]4CCCC[C@H]4O)sc3c2)ccn1 [BLZ945, 4-(2-((1R,2R)-2-hydroxycyclohexylamino)benzothiazol-6-yloxy)-N-methylpicolinamide]
Remyelination by MRI, corpus callosum/external capsule [1]: significantly enhanced remyelination | Remyelination by MRI, cortex [1]: significantly enhanced remyelination | Remyelination by MRI, striatum [1]: only a trend | MRI contrast in corpus callosum [2]: not corpus callosum | MRI contrast in cortex [2]: reduces MRI contrast | MRI contrast in striatum [2]: reduces MRI contrast | Remyelination as detected by MRI (lower doses (20 and 60 mg/kg), short-term treatment for only 1 week, 5-week cuprizone model): beneficial effects on remyelination
